According to USRE38425E1, “Semicarbazones having CNS activity and pharmaceutical preparations containing same” (University of Saskatchewan Technologies, Inc., priority 1995, dated 2004):
“And” between values parts separate entries of the source, which are not always exact repeats. Equal values may be shown once. Read-outs that look alike come from different tables or passages of the source.

Legend:
mice [1] = system: mice
mice [2] = conditions: intraperitoneal injection in mice; time t (h) per compound as in the table
Description: An initial anticonvulsant evaluation of the compounds prepared according to Example 1 was undertaken by administering the compounds by the intraperitoneal route to mice. Protection and/or neurotoxicity was noted 0.5 and 4 hours after administering doses of 30, 100 and 300 mg/kg of each semicarbazone to the animals.
Doses of 30, 100 and 300 mg/kg were injected by the intraperitoneal route into mice and evaluated in the MES, scPTZ and neurotoxicity screens one half and four hours after administration.

mice [3] = assay: MES screen after intraperitoneal injection in mice; format: in vivo; conditions: time t (h) per compound as in the table; for ED50: Mus musculus, ip
rats [4] = assay: MES screen after oral administration to rats; conditions: for ED50: Rattus norvegicus, po
Description: The majority of the compounds were examined for oral activity in rats. Initially doses of 50 mg/kg of the semicarbazones were administered.
Evaluation of most of the semicarbazones and analogs in the MES and neurotoxicity tests after oral administration to rats was performed.

epileptic chicken = epileptic chicken model (intermittent photic stimulation); format: in vivo; conditions: convulsions induced by intermittent photic stimulation
Excerpt: Two series of compounds were examined with the aim of observing whether oxygen or sulfur is a preferable spacer atom between the two aryl rings and also to compare the ED50 figures with those obtained in the rat oral and mouse intraperitoneal screens.

rats [5] = assay: neurotoxicity screen after oral administration to rats; conditions: oral administration to rats; time t (h) per compound as in the table
Description: (§1) Initially doses of 50 mg/kg of the semicarbazones were administered.

rats [6] = assay: scPTZ screen after oral administration to rats
Description: as §1

kindled rat = kindled rat test (corneal kindled rat screen); format: in vivo, rats; conditions: for ED50: Rattus norvegicus, read-out: ED50 (dose required to reduce seizures from stage 5 to stage 3 or less); for protection in the corneal kindled rat screen: in vivo
Excerpt: Particularly preferred compounds according to the present invention are 4-(4′-fluorophenoxy)benzaldehyde semicarbazone and 4-(thiophenoxy)benzaldehyde semicarbazone. […] Incidentally, the kindled rat screen is described by R. J. Racine in “Modification of Seizure Activity by Electrical Stimulation. II. Motor Seizure”, Electroencephalogr.Clin.Neurophysiol., 1972, 32, 281-294, and by G. Skeen et al. In “Development of Kindled Seizures Following Electrical Stimulation via the Cornea”, Soc.Neurosci., 1990, 16(1), 307; the disclosures of which are incorporated herein by reference.
The kindled rat test was undertaken by reported procedures (as indicated above). Compound 4b was administered orally and the animals challenged with electrical stimuli 2h later. The ED50 is the dose required to reduce seizures from stage 5 to stage 3 or less and these stages are described as follows namely stage 1 is mouth and facial clonus, stage 2 is stage 1 plus head nodding, stage 3 is stage 2 plus forelimb clonus, stage 4 is stage 3 plus rearing and stage 5 is stage 4 plus repeated rearing and falling.

in vivo = conditions: rat, po
Description: as §1

rats [7] = conditions: rat, in vivo, po
Description: as §1

[8] = intraperitoneal injection in mice, time t (h) per compound as in the table
[9] = intraperitoneal injection in mice
[10] = oral administration to rats, dose 50 mg/kg, 0.25 h
[11] = oral administration to rats, dose 50 mg/kg, 0.5 h
[12] = oral administration to rats, dose 50 mg/kg, 1 h
[13] = oral administration to rats, dose 50 mg/kg, 2 h
[14] = oral administration to rats, dose 50 mg/kg, 4 h
[15] = oral administration to rats, dose 12.5 mg/kg, 0.5 h
[16] = oral administration to rats, dose 12.5 mg/kg, 1 h
[17] = oral administration to rats, dose 12.5 mg/kg, 2 h
[18] = oral administration to rats, dose 12.5 mg/kg, 4 h
[19] = oral administration to rats, time t (h) per compound as in the table
[20] = doses indicated in Table 1, after 0.5 h
[21] = doses indicated in Table 1, after 1 h
[22] = doses indicated in Table 1, after 2 h
[23] = oral administration to rats, dose 12.5 mg/kg, 0.25 h
[24] = intraperitoneal injection in mice, read-out: MES screen ED50
[25] = read-out: MES screen ED50 (mg/kg)
[26] = doses indicated in Table 1, after 4 h

With `NC(=O)NN=Cc1ccc(Sc2ccc(Cl)cc2)cc1` [Compound 16b] the “neurotoxicity screen TD50” value (mice [1]; [8]) was 53.18 mg/kg, the “acPTZ screen ED50” value (mice [2]) was greater than 120 mg/kg and the “MES screen ED50” value (mice [3]; [9]) was 16.22 mg/kg. For the same compound, the “MES screen: number of rats out of 4 which were protected” value (“MES screen: number” below) (rats [4]; [10]) was 1, the “MES screen: number” value (rats [4]; [11]) was 4 and the “MES screen: number” value (rats [4]; [12]) was 4. The “MES screen: number” value (rats [4]; [13]) was 4, the “MES screen: number” value (rats [4]; [14]) was 4 and the “ED50 in the epileptic chicken model” value (epileptic chicken) was 1.0 mg/kg.

With `Cc1ccccc1Oc1ccc(C=NNC(N)=O)cc1` [Compound 5n] the “neurotoxicity screen TD50” value (rats [5]) was greater than 500 mg/kg, the “MES screen 0.5 h: number of rats out of 4 which were protected” value (from here on “MES screen 0.5 h: number”) (rats [4]; [15]) was 4 and the “MES screen 1 h: number of rats out of 4 which were protected” value (“MES screen 1 h: number” for short) (rats [4]; [16]) was 3. For the same compound, the “MES screen 2 h: number of rats out of 4 which were protected” value (shortened to “MES screen 2 h: number”) (rats [4]; [17]) was 4, the “MES screen 4 h: number of rats out of 4 which were protected” value (“MES screen 4 h: number” below) (rats [4]; [18]) was 4 and the “MES screen ED50” value (rats [4]; [19]) was 5.65 mg/kg. The “number of rats protected in the scPTZ screen” value (from here on “number of rats protected”) (rats [6]; [20]) was 1/4, the “number of rats protected” value (rats [6]; [21]) was 1/4 and the “number of rats protected” value (rats [6]; [22]) was 1/4.

In the case of `NC(=O)NN=Cc1ccc(Sc2ccc(Br)cc2)cc1` [Compound 16c], the “neurotoxicity screen TD50” value (mice [1]; [8]) is reported as 122.57 mg/kg, the “acPTZ screen ED50” value (mice [2]) is reported as greater than 200 mg/kg and the “MES screen ED50” value (mice [3]; [9]) is reported as 24.37 mg/kg. For the same compound, the “MES screen: number” value (rats [4]; [23]) was 0, the “MES screen: number” value (rats [4]; [15]) was 1 and the “MES screen: number” value (rats [4]; [16]) was 3. The “MES screen: number” value (rats [4]; [17]) was 4, the “MES screen: number” value (rats [4]; [18]) was 4 and the “ED50 in the epileptic chicken model” value (epileptic chicken) was 1.5 mg/kg.

In the case of `O=C1NC(=O)C(c2ccccc2)(c2ccccc2)N1` [Phenytoin, reference compound], the “neurotoxicity screen TD50” value (mice [1]; [8]) is reported as 41.23 mg/kg and 42.8 mg/kg, the “toxicity screen 0.5 h: minimum dose whereby bioactivity was demonstrated in half or more of the mice” value (mice [1]; mouse, in vivo, 0.5 h) is reported as 100 mg/kg and the “toxicity screen: minimum dose whereby bioactivity was demonstrated in half or more of the mice” value (mice [1]; mouse, in vivo, 0.5 h) is reported as 100 mg/kg. The “toxicity screen 4 h: minimum dose whereby bioactivity was demonstrated in half or more of the mice” value (mice [1]; mouse, in vivo, 4 h) was 100 mg/kg, the “toxicity screen: minimum dose whereby bioactivity was demonstrated in half or more of the mice” value (mice [1]; mouse, in vivo, 4 h) was 100 mg/kg and the “acPTZ screen ED50” value (mice [2]) was greater than 50 mg/kg. The ED50 (mice [3]; [24]) was 6.32 mg/kg, the “MES screen ED50” value (mice [3]; [9]) was 6.48 mg/kg and the ED50 (kindled rat) was greater than 100 mg/kg. It also gave a TD50 (in vivo) greater than 500 mg/kg and an ED50 (rats [4]; [25]) of 23.2 mg/kg.

In the case of `NC(=O)NN=Cc1ccc(Sc2ccc(F)cc2)cc1` [Compound 16a], the “neurotoxicity screen TD50” value (mice [1]; [8]) is reported as 88.00 mg/kg, the “acPTZ screen ED50” value (mice [2]) is reported as greater than 120 mg/kg and the “neurotoxicity screen TD50” value (rats [5]) is reported as 183.05 mg/kg. For the same compound, the “MES screen ED50” value (mice [3]; [9]) was 12.37 mg/kg, the “MES screen: number” value (rats [4]; [23]) was 1 and the “MES screen: number” value (rats [4]; [15]) was 3. The “MES screen: number” value (rats [4]; [16]) was 4, the “MES screen: number” value (rats [4]; [17]) was 4 and the “MES screen: number” value (rats [4]; [18]) was 4. For the same compound, the “ED50 in the epileptic chicken model” value (epileptic chicken) was 1.5 mg/kg.

For `CCCC(CCC)C(=O)O` [Valproic acid, reference compound], the “acPTZ screen ED50” value (mice [2]) was 209 mg/kg, the ED50 (mice [3]; read-out: MES screen ED50 (mg/kg), intraperitoneal injection in mice) was 287 mg/kg and the ED50 (kindled rat) was 117 mg/kg. For the same compound, the ED50 (rats [4]; read-out: MES screen ED50 (mg/kg), oral administration to rats, time t (h) per compound as in the table) was 395 mg/kg and the “neurotoxicity screen TD50” value (rats [7]) was 859 mg/kg.

In the case of `NC(=O)NN=Cc1ccc(Oc2ccc(I)cc2)cc1` [Compound 4e], the “MES screen 0.25 h: number of rats out of 4 which were protected” value (rats [4]; [10]) is reported as 3, the “MES screen 0.5 h: number” value (rats [4]; [11]) is reported as 4 and the “MES screen 1 h: number” value (rats [4]; [12]) is reported as 4. The “MES screen 2 h: number” value (rats [4]; [13]) was 4, the “MES screen 4 h: number” value (rats [4]; [14]) was 4 and the “number of rats protected” value (rats [6]; [20]) was 1/4. For the same compound, the “number of rats protected” value (rats [6]; [21]) was 1/4 and the “number of rats protected” value (rats [6]; [26]) was 1/4.

For `CCCCc1ccc(Oc2ccc(C=NNC(N)=O)cc2)cc1` [Compound 5r], the “neurotoxicity screen TD50” value (mice [1]; [8]) was 131.27 mg/kg, the “acPTZ screen ED50” value (mice [2]) was 86.93 mg/kg and the “neurotoxicity screen TD50” value (rats [5]) was greater than 3.22 mg/kg. For the same compound, the “MES screen ED50” value (mice [3]; [9]) was 13.36 mg/kg, the “MES screen 0.5 h: number” value (rats [4]; [15]) was 2 and the “MES screen 1 h: number” value (rats [4]; [16]) was 2. For the same compound, the “MES screen 2 h: number” value (rats [4]; [17]) was 3, the “MES screen 4 h: number” value (rats [4]; [18]) was 4 and the “MES screen ED50” value (rats [4]; [19]) was 3.21 mg/kg. The “number of rats protected” value (rats [6]; [21]) was 1/4, the “number of rats protected” value (rats [6]; [22]) was 2/4 and the “number of rats protected” value (rats [6]; [26]) was 1/4.

In the case of `NC(=O)NN=Cc1ccc(Sc2ccccc2)cc1` [Compound 15a], the “neurotoxicity screen TD50” value (mice [1]; [8]) is reported as 181.00 mg/kg, the “acPTZ screen ED50” value (mice [2]) is reported as greater than 46 mg/kg and the “neurotoxicity screen TD50” value (rats [5]) is reported as greater than 496 mg/kg. The “MES screen ED50” value (mice [3]; [9]) was 15.62 mg/kg, the “MES screen: number” value (rats [4]; [11]) was 4 and the “MES screen: number” value (rats [4]; [12]) was 4. For the same compound, the “MES screen: number” value (rats [4]; [13]) was 4, the “MES screen: number” value (rats [4]; [14]) was 4 and the “ED50 in the epileptic chicken model” value (epileptic chicken) was 2.5 mg/kg.

In the case of `NC(=O)NN=Cc1ccc(Sc2ccccc2)cc1` [4-(thiophenoxy)benzaldehyde semicarbazone], the “protection in the corneal kindled rat screen” value (kindled rat) is reported as “afford protection”.

With `NC(=O)N1c2ccccc2C=Cc2ccccc21` [Carbamazepine, reference compound] the “toxicity screen 0.5 h: minimum dose whereby bioactivity was demonstrated in half or more of the mice” value (mice [1]; mouse, in vivo, 0.5 h) was 100 mg/kg, the “toxicity screen: minimum dose whereby bioactivity was demonstrated in half or more of the mice” value (mice [1]; mouse, in vivo, 0.5 h) was 100 mg/kg and the “toxicity screen 4 h: minimum dose whereby bioactivity was demonstrated in half or more of the mice” value (mice [1]; mouse, in vivo, 4 h) was 300 mg/kg. For the same compound, the “toxicity screen: minimum dose whereby bioactivity was demonstrated in half or more of the mice” value (mice [1]; mouse, in vivo, 4 h) was 300 mg/kg, the “neurotoxicity screen TD50” value (mice [1]; mouse, in vivo, ip) was 47.8 mg/kg and the “acPTZ screen ED50” value (mice [2]) was greater than 50 mg/kg. The “neurotoxicity screen TD50” value (rats [5]) was 361 mg/kg, the ED50 (mice [3]; [24]) was 9.85 mg/kg and the ED50 (kindled rat) was 28.9 mg/kg. The ED50 (rats [4]; [25]) was 3.57 mg/kg.

For `NC(=O)NN=Cc1ccc(Oc2ccc(F)cc2)cc1` [4-(4′-fluorophenoxy)benzaldehyde semicarbazone], the “protection in the corneal kindled rat screen” value (kindled rat) was “afford protection”.
